Measured values taken from patent US8673907B2, “Pharmaceutically acceptable salts of methyl (3-{ [[3-(6-amino- 2-butoxy-8-oxo-7,8-dihydro-9H-purin-9-yl) propyl] (3-morpholin-4-ylpropyl) amino] methyl }phenyl) acetate and their use in therapy” (AstraZeneca AB, priority 2007, dated 2014).

Key:
Type in all cases: physicochemical
[1] = Particle size measurement by laser diffraction (Malvern Scirocco) after micronisation; conditions: after jet milling; pressure 4 bar (comparison) or 1.5 bar (salts)
Experimental: Particle size reduction (micronisation) was performed in a jet mill in which pressurised gas was used to make the substance particles collide at high speed in order to effect particle size reduction. Particle size measurements were performed with laser diffraction using a Malvern Scirocco instrument.

[2] = Measurement of fine particle fraction (FPF) with Next Generation Impactor and HPLC; conditions: for Delivered amount: 60 liters/min for 2 seconds; for FPF (% < 5 μm/delivered dose), Average over NGI's: average of NGI1 and NGI2
Experimental: Measurement of FPF, starting from substance as received, was carried out according to the following series of steps:
Doses of 1-2 mg were weighed manually (without scraping) into the cavities of a prototype inhaler (see below). Two experiments were run for each test substance and two doses were used in each experiment and, thus, in total, four doses of each test substance were used in the experiments. The samples were dried in nitrogen gas atmosphere overnight before conducting the experiments.
The Next Generation Impactor, NGI, was used for the fine particle assessment. […] Two NGI impactors were used, one per experiment.
A simple prototype inhaler was used for the tests, consisting of an L-shaped cylindrical channel, comprising a vertical component and a horizontal component. The prototype inhaler was fitted via an USP-inlet to the NGI impactor. The micronised powder was transferred through the vertical channel into the bend of the prototype inhaler, (i.e. the bend of the L-shaped channel).
Each dose of 1-2 mg of powder was drawn with an airflow of 60 liters/min for 2 seconds (measured at the entrance of the induction port), entraining the powder located in the bend, and the aerosol thereafter moved through the horizontal component of the channel, through a spiral mouthpiece and into the NGI impactor.
The withdrawal and collection of the drug powders was performed in an isolator (glove) box with a relative humidity level below 2%.
The FPF's, as defined in the pharmacopoeia references above, were calculated.

[3] = Particle size reduction (micronisation) in 2" Spiral Jet Mill; conditions: for Yield (micronisation): constant flow feed, venturi 5 bar, grind 1-2 bar
Experimental: Particle size reduction using a 2″ Spiral Jet Mill (SJM) was carried out on the following three test substances: the monohydrochloride salt according to Example 1 (invention salt), the dimaleate salt according to Example 3 (invention salt) and the free base compound, methyl (3-{[[3-(6-amino-2-butoxy-8-oxo-7,8-dihydro-9H-purin-9-yl)propyl](3-morpholin-4-ylpropyl)amino]methyl}phenyl)acetate (comparison compound).
A sieved batch of test substance was fed into the jet mill chamber, via a venturi feed system, by a vibratory feeder. Micronisation was achieved by particle collisions brought about by compressed gas (nitrogen) forced through angled nozzles in the jet mill chamber. Particles of different sizes develop different speeds and momentum and as the particle size is reduced the particles spiral towards the centre of the jet mill and exit via an exhaust into a collection bin. The process parameters that control the particle size, in addition to the inherent properties of the compound to be micronised, are the feed rate, grinding pressure and venturi pressure and these are summarised in Table I following.

Compound: CCCCOc1nc(N)c2[nH]c(=O)n(CCCN(CCCN3CCOCC3)Cc3cccc(CC(=O)OC)c3)c2n1 [Comparison compound, methyl (3-{[[3-(6-amino-2-butoxy-8-oxo-7,8-dihydro-9H-purin-9-yl)propyl](3-morpholin-4-ylpropyl)amino]methyl}phenyl)acetate, reference compound]
- d(0.1) [1]: 0.6 μm
- d(0.5) [1]: 1.7 μm
- d(0.9) [1]: 4.1 μm
- Amount particles < 5 μm, extrapolated ([2]; NGI1): 139 µg
- Collected in stage 3-8 (<4.5 μm) ([2]; NGI1): 131 µg
- FPF (% < 5 μm/delivered dose) ([2]; NGI1): 19.3%
- Delivered amount ([2]; NGI1): 720 µg
- Amount particles < 5 μm, extrapolated ([2]; NGI2): 189 µg
- Collected in stage 3-8 (<4.5 μm) ([2]; NGI2): 178 µg
- FPF (% < 5 μm/delivered dose) ([2]; NGI2): 13.6%
- Delivered amount ([2]; NGI2): 1396 µg
- FPF (% < 5 μm/delivered dose), Average over NGI's [2]: 16.4%
- Micronisation behaviour (build-up/blocking of mill) [3]: the mill became plugged
- Yield (micronisation) [3]: 1.7%

Compound: Br.CCCCOc1nc(N)c2[nH]c(=O)n(CCCN(CCCN3CCOCC3)Cc3cccc(CC(=O)OC)c3)c2n1 [Monohydrobromide, methyl (3-{[[3-(6-amino-2-butoxy-8-oxo-7,8-dihydro-9H-purin-9-yl)propyl](3-morpholin-4-ylpropyl)amino]methyl}phenyl)acetate monohydrobromide]
- d(0.1) [1]: 0.8 μm
- d(0.5) [1]: 1.9 μm
- d(0.9) [1]: 4.1 μm
- Amount particles < 5 μm, extrapolated ([2]; NGI1): 332 µg
- Collected in stage 3-8 (<4.5 μm) ([2]; NGI1): 319 µg
- FPF (% < 5 μm/delivered dose) ([2]; NGI1): 29.6%
- Delivered amount ([2]; NGI1): 1123 µg
- Amount particles < 5 μm, extrapolated ([2]; NGI2): 427 µg
- Collected in stage 3-8 (<4.5 μm) ([2]; NGI2): 414 µg
- FPF (% < 5 μm/delivered dose) ([2]; NGI2): 43.8%
- Delivered amount ([2]; NGI2): 975 µg
- FPF (% < 5 μm/delivered dose), Average over NGI's [2]: 36.7%

Compound: CCCCOc1nc(N)c2[nH]c(=O)n(CCCN(CCCN3CCOCC3)Cc3cccc(CC(=O)OC)c3)c2n1.O=C(O)/C=C\C(=O)O.O=C(O)/C=C\C(=O)O [Dimaleate salt, methyl (3-{[[3-(6-amino-2-butoxy-8-oxo-7,8-dihydro-9H-purin-9-yl)propyl](3-morpholin-4-ylpropyl)amino]methyl}phenyl)acetate dimaleate]
- Micronisation behaviour (build-up/blocking of mill) [3]: readily micronised
- Yield (micronisation) [3]: 48%

Compound: CCCCOc1nc(N)c2[nH]c(=O)n(CCCN(CCCN3CCOCC3)Cc3cccc(CC(=O)OC)c3)c2n1.Cl [Monohydrochloride, methyl (3-{[[3-(6-amino-2-butoxy-8-oxo-7,8-dihydro-9H-purin-9-yl)propyl](3-morpholin-4-ylpropyl)amino]methyl}phenyl)acetate monohydrochloride]
- d(0.1) [1]: 0.9 μm
- d(0.5) [1]: 1.8 μm
- d(0.9) [1]: 3.5 μm
- Amount particles < 5 μm, extrapolated ([2]; NGI1): 393 µg
- Collected in stage 3-8 (<4.5 μm) ([2]; NGI1): 383 µg
- FPF (% < 5 μm/delivered dose) ([2]; NGI1): 31.3%
- Delivered amount ([2]; NGI1): 1257 µg
- Amount particles < 5 μm, extrapolated ([2]; NGI2): 402 µg
- Collected in stage 3-8 (<4.5 μm) ([2]; NGI2): 392 µg
- FPF (% < 5 μm/delivered dose) ([2]; NGI2): 40.6%
- Delivered amount ([2]; NGI2): 992 µg
- FPF (% < 5 μm/delivered dose), Average over NGI's [2]: 35.9%
- Micronisation behaviour (build-up/blocking of mill) [3]: readily micronised
- Yield (micronisation) [3]: 85%
